The melting point is the temperature of the solid-liquid transition.

The values below come from patent publication US6576595B1, “Xanthone derivatives, processes for their preparation and their use for controlling harmful fungi, and compositions comprising these derivatives” (BASF Aktiengesellschaft, priority 2001, dated 2003).

In data set [1] the test system is mildew of wheat (Blumeria graminis forma specialis tritici). Nature of the data set: activity against powdery mildew of wheat (protective spray test on potted wheat seedlings). The data set is classed as in vivo. As to conditions: wheat seedlings cultivar Kanzler, sprayed 24 h before inoculation, assessed visually after 7 days, untreated plants 90% infected. As to the method:
The active compounds were prepared separately or jointly as a 10% strength emulsion in a mixture of 70% by weight of cyclohexanone, 20% by weight of Nekanil® LN (Lutensol® AP6, wetting agent having emulsifying and dispersing action based on ethoxylated alkylphenols) and 10% by weight of Wettol® EM (nonionic emulsifier based on ethoxylated castor oil) and diluted with water to the desired concentration.
Use example—activity against powdery mildew of wheat
Leaves of potted wheat seedlings of the cultivar “Kanzler” were sprayed to runoff point with an aqueous preparation of active compound which had been prepared from a stock solution of 10% of active compound, 63% of cyclohexanone and 27% of emulsifier. 24 hours after the spray coating had dried on, the leaves were dusted with spores of mildew of wheat (Blumeria graminis forma specialis tritici). The test plants were then placed in a greenhouse at 20-24° C. and 60 to 90% relative atmospheric humidity.
After 7 days, the extent of the mildew development was determined visually in % infection of the entire leaf area.

For the molecule `COc1cc(C)c2c(=O)c3c(C)c(Cl)ccc3oc2c1OC` [I-5, 7-chloro-3,4-dimethoxy-1,8-dimethylxanthen-9-one], the melting point amounted to 180 °C. For the same molecule, the “extent of the mildew development in % infection of the entire leaf area” value in data set [1] (4 ppm active compound) was “not more than 3%”. For the same molecule, the “extent of the mildew development in % infection of the entire leaf area” value in data set [1] (16 ppm active compound) was “not more than 3%”.
Molecule `COc1cc(C)c2c(=O)c3c(OC)cccc3oc2c1OC` registered a melting point of 158 °C.
In turn, `COc1cc(C)c2c(=O)c3c(oc2c1OC)C(Br)=CCC3(C)OC` (centres unmarked) returned a melting point of 162 °C.
